Experimental data from US12433292B2, “Method of production of controlled release silica nanoparticles for plant growth and/or defense enhancement” (ADOLPHE MERKLE INSTITUTE, UNIVERSITY OF FRIBOURG, priority 2019, dated 2025).

Legend:
[1] = tested on: Medicago sativa (alfalfa) seeds; assay: Alfalfa germination test
Method: (§1) Independent 60 seed to 800 seed germination tests were conducted following standard seed testing protocols. Briefly, the seeds were placed on filter paper wettened with the active ingredient solution or nanoparticle suspension under investigation and germinated for 5-10 days. The infection of seeds with fungi and bacteria, and the germination rates were determined by counting the infested and germinated seeds, respectively. The germination speed was assessed by counting all fully emerged cotyledons. Blanks (water only) and dissolved silicon control (orthosilicic acid solution) were run in parallel to all experiments in 3-8 replicates. As a positive control, a solution of the commercially available fungicide tebuconazole was run in parallel. The SiO2-NP exposed plants were embedded in low viscosity epoxy resin for transmission electron microscopy imaging.

[2] = tested on: fungi and bacteria; assay: Alfalfa germination test: infection of seeds; format: in vivo, Medicago sativa; conditions: positive control
Method: as §1

Row | Molecule | overall effect on fungal infection, cotyledon emergence, seed vigor and biomass ([1]; germination and soil growth tests) | cotyledon emergence ([1]; 100 ppm) | germination ([1]; 100 ppm) | adverse effects on germinating seeds ([1]; 4000 ppm) | toxicity to the seed ([1]; same or comparable concentrations) | effect on fungi [2]
1 | orthosilicic acid | performed equally or worse compared to the nanoparticles |  |  |  |  | 
2 | CC(C)(C)C(O)(CCc1ccc(Cl)cc1)Cn1cncn1 (stereo not drawn) [tebuconazole] |  | detrimental effects | detrimental effects | some adverse effects | exhibited toxicity to the seeds | killing all fungi
